{"source": "patent US20120132797A1", "about": "“MEANS AND METHODS FOR DIAGNOSING THYROID DISORDERS” (BASF SE, priority 2009, published 2012)", "tested_on": "Wistar (Crl:WI(Han)) rats", "test": "Mass spectrometry-based plasma metabolite profiling of rats treated with known inducers of thyroid function impairment", "assay_type": "in vivo, rat", "settings": "ratio of group medians vs controls", "in_short": "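Rats aged 10-11 weeks, 5/sex/dose vs 10/sex controls, dosed at low and high levels; retro-orbital plasma taken under isoflurane on days 7, 14 and 28 after 16-20 h fast. Polar and non-polar fractions profiled by GC-MS (derivatised) and LC-MS/MS (MRM plus full scan), normalised to pool samples; Welch t-test by sex and day gives p-values and median ratios.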", "key": {"[1]": {"settings": "female rats, fh7 (study day 7), Table 1"}, "[2]": {"settings": "female rats, fh14 (study day 14), Table 1"}, "[3]": {"settings": "female rats, fh28 (study day 28), Table 1"}, "[4]": {"settings": "male rats, mh7 (study day 7), Table 2"}, "[5]": {"settings": "male rats, mh14 (study day 14), Table 2"}, "[6]": {"settings": "male rats, mh28 (study day 28), Table 2"}}, "data": [{"compound": "CCCc1cc(=O)[nH]c(=S)[nH]1", "note": "[6-Propyl-2-thiouracil]", "values": [{"measurement": "5-O-Methylsphingosine", "setting": "[1]", "result": 1.40}, {"measurement": "Asparagine", "setting": "[1]", "result": 1.10}, {"measurement": "Behenic acid (C22:0)", "setting": "[1]", "result": 1.27}, {"measurement": "Citrate", "setting": "[1]", "result": 0.87}, {"measurement": "Docosahexaenoic acid (C22:cis[4,7,10,13,16]6)", "setting": "[1]", "result": 1.25}, {"measurement": "Glycine", "setting": "[1]", "result": 1.13}, {"measurement": "Ketoleucine", "setting": "[1]", "result": 1.05}, {"measurement": "Lysophosphatidylcholine (C18:2)", "setting": "[1]", "result": 1.07}, {"measurement": "Phosphatidylcholine (C16:1, C18:2)", "setting": "[1]", "result": 1.49}, {"measurement": "Phosphatidylcholine (C18:2, C20:4)", "setting": "[1]", "result": 1.20}, {"measurement": "Pyruvate", "setting": "[1]", "result": 0.91}, {"measurement": "Tricosanoic acid (C23:0)", "setting": "[1]", "result": 1.45}, {"measurement": "erythro-Sphingosine", "setting": "[1]", "result": 1.46}, {"measurement": "threo-Sphingosine", "setting": "[1]", "result": 1.24}, {"measurement": "Sphingomyelin (d18:1, C16:0)", "setting": "female rats, fh7 (study day 7), Table 1, first listing", "result": 1.01}, {"measurement": "Sphingomyelin (d18:1, C16:0)", "setting": "female rats, fh7 (study day 7), Table 1, second listing", "result": 1.26}, {"measurement": "5-O-Methylsphingosine", "setting": "[2]", "result": 1.36}, {"measurement": "Asparagine", "setting": "[2]", "result": 1.09}, {"measurement": "Behenic acid (C22:0)", "setting": "[2]", "result": 1.14}, {"measurement": "Citrate", "setting": "[2]", "result": 0.69}, {"measurement": "Docosahexaenoic acid (C22:cis[4,7,10,13,16]6)", "setting": "[2]", "result": 1.14}, {"measurement": "Glycine", "setting": "[2]", "result": 1.08}, {"measurement": "Ketoleucine", "setting": "[2]", "result": 0.80}, {"measurement": "Lysophosphatidylcholine (C18:2)", "setting": "[2]", "result": 1.31}, {"measurement": "Phosphatidylcholine (C16:1, C18:2)", "setting": "[2]", "result": 1.37}, {"measurement": "Phosphatidylcholine (C18:2, C20:4)", "setting": "[2]", "result": 1.17}, {"measurement": "Pyruvate", "setting": "[2]", "result": 0.65}, {"measurement": "Tricosanoic acid (C23:0)", "setting": "[2]", "result": 1.30}, {"measurement": "erythro-Sphingosine", "setting": "[2]", "result": 1.28}, {"measurement": "threo-Sphingosine", "setting": "[2]", "result": 1.29}, {"measurement": "Sphingomyelin (d18:1, C16:0)", "setting": "female rats, fh14 (study day 14), Table 1, first listing", "result": 1.46}, {"measurement": "Sphingomyelin (d18:1, C16:0)", "setting": "female rats, fh14 (study day 14), Table 1, second listing", "result": 1.33}, {"measurement": "5-O-Methylsphingosine", "setting": "[3]", "result": 1.20}, {"measurement": "Asparagine", "setting": "[3]", "result": 0.93}, {"measurement": "Behenic acid (C22:0)", "setting": "[3]", "result": 1.23}, {"measurement": "Citrate", "setting": "[3]", "result": 0.66}, {"measurement": "Docosahexaenoic acid (C22:cis[4,7,10,13,16]6)", "setting": "[3]", "result": 0.84}, {"measurement": "Glycine", "setting": "[3]", "result": 1.05}, {"measurement": "Ketoleucine", "setting": "[3]", "result": 0.89}, {"measurement": "Lysophosphatidylcholine (C18:2)", "setting": "[3]", "result": 1.26}, {"measurement": "Phosphatidylcholine (C16:1, C18:2)", "setting": "[3]", "result": 1.09}, {"measurement": "Phosphatidylcholine (C18:2, C20:4)", "setting": "[3]", "result": 1.17}, {"measurement": "Pyruvate", "setting": "[3]", "result": 0.73}, {"measurement": "Tricosanoic acid (C23:0)", "setting": "[3]", "result": 1.36}, {"measurement": "erythro-Sphingosine", "setting": "[3]", "result": 1.24}, {"measurement": "threo-Sphingosine", "setting": "[3]", "result": 1.34}, {"measurement": "Sphingomyelin (d18:1, C16:0)", "setting": "female rats, fh28 (study day 28), Table 1, first listing", "result": 1.62}, {"measurement": "Sphingomyelin (d18:1, C16:0)", "setting": "female rats, fh28 (study day 28), Table 1, second listing", "result": 1.29}, {"measurement": "3-O-Methylsphingosine", "setting": "[4]", "result": 1.57}, {"measurement": "5-O-Methylsphingosine", "setting": "[4]", "result": 1.50}, {"measurement": "14-Methyl-Pentadecanoic acid", "setting": "[4]", "result": 0.98}, {"measurement": "17-Methyloctadecanoic acid", "setting": "[4]", "result": 1.10}, {"measurement": "Arginine", "setting": "[4]", "result": 1.09}, {"measurement": "Cholesterol", "setting": "[4]", "result": 1.42}, {"measurement": "Citrate", "setting": "[4]", "result": 0.90}, {"measurement": "Dihom-gamma-Linolenic acid (C20:cis[8,11,14]3)", "setting": "[4]", "result": 1.02}, {"measurement": "Lignoceric acid (C24:0)", "setting": "[4]", "result": 1.28}, {"measurement": "Phytosphingosine", "setting": "[4]", "result": 1.11}, {"measurement": "Sphingomyelin (d18:1, C16:0)", "setting": "[4]", "result": 1.35}, {"measurement": "Tricosanoic acid (C23:0)", "setting": "[4]", "result": 1.28}, {"measurement": "alpha-Tocopherol", "setting": "[4]", "result": 1.20}, {"measurement": "erythro-Sphingosine", "setting": "[4]", "result": 1.46}, {"measurement": "threo-Sphingosine", "setting": "[4]", "result": 1.33}, {"measurement": "Glutamate", "setting": "male rats, mh7 (study day 7), Table 2, first listing", "result": 0.78}, {"measurement": "Glutamate", "setting": "male rats, mh7 (study day 7), Table 2, second listing", "result": 1.03}, {"measurement": "3-O-Methylsphingosine", "setting": "[5]", "result": 1.41}, {"measurement": "5-O-Methylsphingosine", "setting": "[5]", "result": 1.38}, {"measurement": "14-Methyl-Pentadecanoic acid", "setting": "[5]", "result": 0.86}, {"measurement": "17-Methyloctadecanoic acid", "setting": "[5]", "result": 0.67}, {"measurement": "Arginine", "setting": "[5]", "result": 1.10}, {"measurement": "Cholesterol", "setting": "[5]", "result": 0.98}, {"measurement": "Citrate", "setting": "[5]", "result": 0.73}, {"measurement": "Dihom-gamma-Linolenic acid (C20:cis[8,11,14]3)", "setting": "[5]", "result": 1.33}, {"measurement": "Lignoceric acid (C24:0)", "setting": "[5]", "result": 1.12}, {"measurement": "Phytosphingosine", "setting": "[5]", "result": 1.07}, {"measurement": "Sphingomyelin (d18:1, C16:0)", "setting": "[5]", "result": 1.35}, {"measurement": "Tricosanoic acid (C23:0)", "setting": "[5]", "result": 1.10}, {"measurement": "alpha-Tocopherol", "setting": "[5]", "result": 1.15}, {"measurement": "erythro-Sphingosine", "setting": "[5]", "result": 1.30}, {"measurement": "threo-Sphingosine", "setting": "[5]", "result": 1.23}, {"measurement": "Glutamate", "setting": "male rats, mh14 (study day 14), Table 2, first listing", "result": 0.78}, {"measurement": "Glutamate", "setting": "male rats, mh14 (study day 14), Table 2, second listing", "result": 0.70}, {"measurement": "3-O-Methylsphingosine", "setting": "[6]", "result": 1.90}, {"measurement": "5-O-Methylsphingosine", "setting": "[6]", "result": 1.82}, {"measurement": "14-Methyl-Pentadecanoic acid", "setting": "[6]", "result": 0.64}, {"measurement": "17-Methyloctadecanoic acid", "setting": "[6]", "result": 0.70}, {"measurement": "Arginine", "setting": "[6]", "result": 1.35}, {"measurement": "Cholesterol", "setting": "[6]", "result": 1.23}, {"measurement": "Citrate", "setting": "[6]", "result": 0.64}, {"measurement": "Dihom-gamma-Linolenic acid (C20:cis[8,11,14]3)", "setting": "[6]", "result": 1.50}, {"measurement": "Lignoceric acid (C24:0)", "setting": "[6]", "result": 1.16}, {"measurement": "Phytosphingosine", "setting": "[6]", "result": 1.20}, {"measurement": "Sphingomyelin (d18:1, C16:0)", "setting": "[6]", "result": 1.71}, {"measurement": "Tricosanoic acid (C23:0)", "setting": "[6]", "result": 1.55}, {"measurement": "alpha-Tocopherol", "setting": "[6]", "result": 1.12}, {"measurement": "erythro-Sphingosine", "setting": "[6]", "result": 1.47}, {"measurement": "threo-Sphingosine", "setting": "[6]", "result": 1.52}, {"measurement": "Glutamate", "setting": "male rats, mh28 (study day 28), Table 2, first listing", "result": 0.65}, {"measurement": "Glutamate", "setting": "male rats, mh28 (study day 28), Table 2, second listing", "result": 0.49}]}]}
